Measurements from patent publication US4731377A, “Antitumor cyclic peroxides” (Harbor Branch Oceanographic Institute, Inc., priority 1986, dated 1988).
Values after ≈ are worked out from the molar mass of the structure shown.

Test system: P-388 mouse leukemia cells
Test: P388 mouse leukemia cell cytotoxicity assay (24-well plate screening / tube assay)
Assay type: cell-based
Conditions: for concentration inhibiting cell growth relative to the concentration required for inhibition by chondrillin (composition 1): 50% inhibition stated for II/2 and III/3, P388 mouse leukemia cells; for IC50: P388, P-388 mouse leukemia cells, 48 hours incubation, 5% CO2, read-out: P388 IC50, Inhibiting concentration 50% of cell growth; for antitumor activity ranking among the compositions tested: Table 2, P388, result in words; for cytotoxic in vitro against P-388 murine leukemia cells: result in words
Source text: The following assay method was utilized to illustrate the antitumor effectiveness of the compositions of Formulae II - VI corresponding to compositions 2-5 of the examples. Data is also provided for the chondrillin composition (1) which has also been isolated according to the process of the invention.
388 MOUSE LEUKEMIA CELL CYTOXICITY ASSAY 24-WELL PLATE SCREENING ASSAY AND TUBE ASSAY PROTOCOL
Media--Dulbeccos with glucose and pyruvate (Biologos, Inc) with 10% horse serum, (Biologos, Inc) and 1.0 ug/ml gentamicin (Gibco).
Cells - P-388 mouse leukemia cells (American Type Culture Collection) in media at a concentration of 5×10^4 W cells/ml Sterile 24-well culture plates (Nunc) for screening or 12×75 mm glass culture tubes (Becton-Dickinson) for tube assay. Microdispenser with 1 to 5 ul increments (Drummond Scientific Co. Broomall PA).
Finnpipette with 5 to 50 μl increments and Finnpipette with 50 to 200 μl increments.
1. A sample of the composition to be assayed is added to each well or tube in an amount of from 200 ug/ml and 100 ug/ml for screening. For DDC of known active compounds use log concentrations from 100 ug/ml to 0.01 ug/ml for range-finding assay; when range has been determined, use five concentrations between highest and lowest active concentrations.
2. Add 2.0 ml of 5×10^4 cell suspension in media to each well or tube. Tubes are loosely covered with parafilm.
3 Incubate in 5% CO2 incubator 48 hours.
4. Visually read plates with inverted microscope, comparing with solvent control. Assign activity as follows:
Repeat all positive samples using tube assay.
5. For Tube assays--Mix tube well on vortex and remove 0.5 ml aliquot and add to 9.5 ml of diluent fluid (Isoton - Coulter) in Accuvette (Coulter) and mix well by inversion immediately before counting, taking care not to produce excessive bubbles. Count on Coulter Counter (Counter is set to count 0.5 ml of the solution; therefore counts may be converted to cell/ml in original assay tube by multiplying count by 40.
Positive control--Vinblastine or Vincristine in aqueous solution.
Always run a solvent control in duplicate in the last two wells of each plate or four tubes for each rack of 72 or less tubes. Also run four wells or tubes with media and cells only per run of plates or tubes. When using volumes of aqueous solutions greater than 200 μl, dry sample and bring up to desired concentration in media.
Compositions 1-5 of formulae I/1; II/2; III/3; IV/4; and V/5 are cytotoxic in vitro against P-388 murine leukemia cells.

| SMILES | concentration inhibiting cell growth relative to the concentration required for inhibition by chondrillin (composition 1) [%] | IC50 [µg/mL] | antitumor activity ranking among the compositions tested | cytotoxic in vitro against P-388 murine leukemia cells |
| --- | --- | --- | --- | --- |
| CC=CC=CCCCCCCC[C@]1(OC)C=C[C@@H](CC(=O)OC)OO1 (relative stereo) [Composition II/2] | 1 | 0.05 (≈ 0.142 µM) | greatest antitumor activity of the compositions tested | cytotoxic |
| CCCCCCCCCCCC[C@]1(OC)C=C[C@@H](CC(=O)OC)OO1 (relative stereo) [Composition III/3] | 1 | 0.05 (≈ 0.14 µM) | greatest antitumor activity of the compositions tested | cytotoxic |
| CC=CC=CCCCCCCCCC[C@]1(OC)C=C[C@@H](CC(=O)OC)OO1 (relative stereo) [Composition IV/4] | 2 | 0.1 (≈ 0.263 µM) | – | cytotoxic |
| CC=CCCCCCCCCC[C@]1(OC)C=C[C@@H](CC(=O)OC)OO1 (relative stereo) [Composition V/5] | 2 | 0.1 (≈ 0.282 µM) | – | cytotoxic |
| CCCCCCCCCCCCCCCCC1(OC)C=CC(CC(=O)OC)OO1 (stereo not shown) [Composition I/1, chondrillin, reference compound] | – | 5 (≈ 12.1 µM) | – | cytotoxic |
